{
  "source": "ChEMBL document CHEMBL6121047",
  "about": "“Design, Synthesis, and Evaluation of Selective PDE4 Inhibitors for the Therapy of Pulmonary Injury” (J Med Chem, 2025)",
  "key": {"RAW264.7 [1]": {"tested_on": "RAW264.7", "test": "Anti-inflammatory activity in LPS-induced mouse RAW264.7 cells assessed as inhibition of IL-6 secretion level at 10 uM preincubated with compound for 1 hr followed by LPS addition and measured after 24 hrs by ELISA", "type": "functional, cell-based", "details": "time 25.0 hrs"}, "[2]": {"test": "Acute toxicity in Sprague-Dawley rat assessed as pathological changes in lung at 1 g/Kg, po administered via gavage by H and E staining based analysis", "type": "organism-based", "details": "in vivo, 1000 mg/kg"}, "BEAS-2B [3]": {"tested_on": "BEAS-2B", "test": "Anti-inflammatory activity in LPS-induced human BEAS-2B cells assessed as inhibition of IL-6 secretion level at 10 uM preincubated with compound for 1 hr followed by LPS addition and measured after 24 hrs by ELISA", "type": "functional, cell-based", "details": "time 25.0 hrs"}, "[4]": {"biological_target": "3',5'-cyclic-AMP phosphodiesterase 4A (Homo sapiens, UniProt P27815)", "sequence (P27815 whole entry)": "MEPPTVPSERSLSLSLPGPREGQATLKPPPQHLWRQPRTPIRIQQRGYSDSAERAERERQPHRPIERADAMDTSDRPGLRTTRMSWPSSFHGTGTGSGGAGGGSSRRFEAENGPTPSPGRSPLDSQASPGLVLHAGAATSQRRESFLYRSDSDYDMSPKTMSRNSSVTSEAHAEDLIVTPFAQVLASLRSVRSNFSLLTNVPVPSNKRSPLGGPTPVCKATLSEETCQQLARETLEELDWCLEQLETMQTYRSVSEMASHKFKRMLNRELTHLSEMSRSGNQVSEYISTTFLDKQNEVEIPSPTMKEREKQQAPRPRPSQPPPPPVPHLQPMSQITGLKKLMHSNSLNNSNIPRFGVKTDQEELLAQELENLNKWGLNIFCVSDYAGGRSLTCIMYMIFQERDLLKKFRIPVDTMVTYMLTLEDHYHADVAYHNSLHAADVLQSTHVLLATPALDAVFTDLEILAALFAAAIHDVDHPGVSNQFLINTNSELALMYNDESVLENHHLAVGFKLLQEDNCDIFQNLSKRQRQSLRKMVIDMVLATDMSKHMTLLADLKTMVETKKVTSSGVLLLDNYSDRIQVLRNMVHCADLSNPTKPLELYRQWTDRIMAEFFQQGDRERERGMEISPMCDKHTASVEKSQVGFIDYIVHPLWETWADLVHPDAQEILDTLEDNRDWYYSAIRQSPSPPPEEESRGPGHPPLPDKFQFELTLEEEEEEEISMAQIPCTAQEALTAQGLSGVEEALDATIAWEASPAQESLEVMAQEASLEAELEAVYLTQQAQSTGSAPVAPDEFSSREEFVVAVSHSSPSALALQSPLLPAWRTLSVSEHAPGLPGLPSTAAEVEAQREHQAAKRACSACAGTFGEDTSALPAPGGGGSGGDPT", "test": "Inhibition of PDE4A (unknown origin) using FAM-cAMP as substrate preincubated with compound for compound for 15 mins followed by substrate addition and measured after 30 mins by Envision multilabel reader analysis"}, "[5]": {"test": "Acute toxicity in Sprague-Dawley rat assessed as pathological changes in spleen at 1 g/Kg, po administered via gavage by H and E staining based analysis", "type": "organism-based", "details": "in vivo, 1000 mg/kg"}, "RAW264.7 [6]": {"tested_on": "RAW264.7", "test": "Anti-inflammatory activity in LPS-induced mouse RAW264.7 cells assessed as decrease in p38 MAPK protein level by Western blotting analysis", "type": "functional, cell-based"}, "Mus musculus [7]": {"tested_on": "Mus musculus", "test": "(§1) Anti-inflammatory activity against cigarette-smoke/LPS-induced COPD male C57BL/6 mouse model assessed as decrease in collagen formation at 5 mg/kg pretreated with cigarette smoke exposure for 21 weeks with subsequent LPS induction twice on the first and 15th day followed by compound administration every day via gavage for 4 weeks by masson staining based microscopic analysis", "type": "functional, organism-based"}, "[8]": {"test": "Acute toxicity in Sprague-Dawley rat assessed as effect on apparent spleen coefficient change at 1 g/Kg, po administered via gavage", "type": "organism-based", "details": "in vivo, 1000 mg/kg"}, "[9]": {"test": "AUC (0 to t) in Sprague-Dawley rat at 5 mg/kg, iv measured upto 24 hrs by LC-MS/MS analysis", "type": "ADME, organism-based", "details": "in vivo"}, "[10]": {"test": "Metabolic stability in monkey liver microsomes assessed as half life incubated for 4 hrs in presence of NADPH by LC-MS analysis", "type": "ADME, Macaca mulatta, Microsome", "details": "rhesus monkey"}, "RAW264.7 [11]": {"tested_on": "RAW264.7", "test": "cells", "details": "Mus musculus"}, "HepG2": {"tested_on": "HepG2", "test": "Cytotoxicity against human HepG2 cells assessed as reduction in cell viability incubated for 24 hrs by CCK-8 assay", "type": "toxicity, cell-based", "details": "hepg2, 24 h"}, "Mus musculus [12]": {"tested_on": "Mus musculus", "test": "Antitussive activity in male BALB/c mouse model assessed as reduction in cough frequency at 32 mg/kg administered every day via gavage for 7 days at 1 hrs post last dose and measured within 3 min", "type": "functional, organism-based", "details": "time 169.05 hrs"}, "[13]": {"test": "Acute toxicity in Sprague-Dawley rat assessed as effect on apparent liver coefficient change at 1 g/Kg, po administered via gavage", "type": "organism-based", "details": "in vivo, 1000 mg/kg"}, "Mus musculus [14]": {"tested_on": "Mus musculus", "test": "Anti-inflammatory activity against LPS-induced acute lung injury male BALB/c mouse model assessed as restoration of alveolar cavities in lung at 8 to 32 mg/kg administered once a day via gavage for 7 days followed by LPS stimulation and measured after 24 hrs by H and E staining based microscopic analysis", "type": "functional, organism-based", "details": "dose 8-32 mg/kg, time 192.0 hrs"}, "Mus musculus [15]": {"tested_on": "Mus musculus", "test": "Enhancement of sputum secretion in male BALB/c mouse model assessed as increase in phenol red secretion in BALF at 4 to 32 mg/kg administered every day via gavage for 7 days followed by phenol red administration at 1 hrs post last dose and measured after 30 mins", "type": "functional, organism-based", "details": "dose 4-32 mg/kg, time 169.5 hrs"}, "Mus musculus [16]": {"tested_on": "Mus musculus", "test": "Antitussive activity in male BALB/c mouse model assessed as delay in cough incubation period at 32 mg/kg administered every day via gavage for 7 days at 1 hrs post last dose and measured within 3 min", "type": "functional, organism-based", "details": "time 169.05 hrs"}, "[17]": {"test": "Toxicity in female Beagle dog assessed as side effects at 1 to 3 mg/kg, po administered once via gavage and measured within 24 hrs", "type": "organism-based, Canis lupus familiaris", "details": "in vivo, dose 1-3 mg/kg"}, "[18]": {"test": "Acute toxicity in Sprague-Dawley rat assessed as effect on apparent heart coefficient change at 1 g/Kg, po administered via gavage", "type": "organism-based", "details": "in vivo, 1000 mg/kg"}, "RAW264.7 [19]": {"tested_on": "RAW264.7", "test": "Cytotoxicity against mouse RAW264.7 cells assessed as reduction in cell viability incubated for 24 hrs by CCK-8 assay", "type": "toxicity, cell-based", "details": "raw264.7, 24 h"}, "[20]": {"test": "Half life in Sprague-Dawley rat at 10 mg/kg, po measured upto 24 hrs by LC-MS/MS analysis", "type": "ADME, organism-based", "details": "in vivo"}, "[21]": {"test": "Toxicity in female Beagle dog assessed as emesis at 1 to 3 mg/kg, po administered once via gavage and measured within 24 hrs", "type": "organism-based, Canis lupus familiaris", "details": "in vivo, dose 1-3 mg/kg"}, "[22]": {"test": "Half life in Sprague-Dawley rat at 5 mg/kg, iv measured upto 24 hrs by LC-MS/MS analysis", "type": "ADME, organism-based", "details": "in vivo"}, "Mus musculus [23]": {"tested_on": "Mus musculus", "test": "Anti-inflammatory activity against LPS-induced acute lung injury male BALB/c mouse model assessed as enlarged bronchiole tubes in lung at 8 to 32 mg/kg administered once a day via gavage for 7 days followed by LPS stimulation and measured after 24 hrs by H and E staining based microscopic analysis", "type": "functional, organism-based", "details": "dose 8-32 mg/kg, time 192.0 hrs"}, "[24]": {"test": "Cmax in Sprague-Dawley rat at 10 mg/kg, po measured upto 24 hrs by LC-MS/MS analysis", "type": "ADME, organism-based", "details": "in vivo"}, "[25]": {"test": "Toxicity in female Beagle dog assessed as drug tolerance at 1 to 3 mg/kg, po administered once via gavage and measured within 24 hrs", "type": "organism-based, Canis lupus familiaris", "details": "in vivo, dose 1-3 mg/kg"}, "RAW264.7 [26]": {"tested_on": "RAW264.7", "test": "Anti-inflammatory activity in LPS-induced mouse RAW264.7 cells assessed as decrease in p-p38 MAPK protein level by Western blotting analysis", "type": "functional, cell-based"}, "[27]": {"test": "AUC (0 to t) in Sprague-Dawley rat at 10 mg/kg, po measured upto 24 hrs by LC-MS/MS analysis", "type": "ADME, organism-based", "details": "in vivo"}, "RAW264.7 [28]": {"tested_on": "RAW264.7", "test": "cells", "details": "Mus musculus", "remark": "listed apart in the source"}, "[29]": {"test": "AUC (0 to infinity) in Sprague-Dawley rat at 10 mg/kg, po measured upto 24 hrs by LC-MS/MS analysis", "type": "ADME, organism-based", "details": "in vivo"}, "BEAS-2B [30]": {"tested_on": "BEAS-2B", "test": "Anti-inflammatory activity in LPS-induced human BEAS-2B cells assessed as inhibition of TNF-alpha secretion level at 10 uM preincubated with compound for 1 hr followed by LPS addition and measured after 24 hrs by ELISA", "type": "functional, cell-based", "details": "time 25.0 hrs"}, "Mus musculus [31]": {"tested_on": "Mus musculus", "test": "as §1, with “reduction” for “decrease”, “IL-6 level in BALF” for “collagen formation”, “weeks” for “weeks by masson staining based microscopic analysis”", "type": "functional, organism-based"}, "RAW264.7 [32]": {"tested_on": "RAW264.7", "test": "Anti-inflammatory activity in LPS-induced mouse RAW264.7 cells assessed as inhibition of IL-1 beta secretion level at 10 uM preincubated with compound for 1 hr followed by LPS addition and measured after 24 hrs by ELISA", "type": "functional, cell-based", "details": "time 25.0 hrs"}, "Mus musculus [33]": {"tested_on": "Mus musculus", "test": "Anti-inflammatory activity against LPS-induced acute lung injury male BALB/c mouse model assessed as relaxation of alveolar in lung at 8 to 32 mg/kg administered once a day via gavage for 7 days followed by LPS stimulation and measured after 24 hrs by H and E staining based microscopic analysis", "type": "functional, organism-based", "details": "dose 8-32 mg/kg, time 192.0 hrs"}, "[34]": {"test": "Metabolic stability in mouse liver microsomes assessed as half life incubated for 4 hrs in presence of NADPH by LC-MS analysis", "type": "ADME, Microsome"}, "[35]": {"test": "Clearance in Sprague-Dawley rat at 5 mg/kg, iv measured upto 24 hrs by LC-MS/MS analysis", "type": "ADME, organism-based", "details": "in vivo"}, "RAW264.7 [36]": {"tested_on": "RAW264.7", "test": "Anti-inflammatory activity against cigarette-smoke/LPS-induced mouse RAW264.7 cells assessed as inhibition of phosphorylated p38 MAPK protein expression by Western blotting analysis", "type": "functional, cell-based"}},
  "note": "Calls of active or inactive are those of the source. The calls are words filed in the database; no cut-off is given here.",
  "data": [
    {"smiles": "O=C(Nc1nccs1)c1cccc2[nH]c(-c3ccc(OC(F)F)c(OCC4CC4)c3)nc12", "values": [
      {"measurement": "Activity", "setting": "RAW264.7 [1]", "result": "Active"},
      {"measurement": "Activity", "setting": "[2]", "result": "Non-toxic"},
      {"measurement": "Activity", "setting": "BEAS-2B [3]", "result": "Active"},
      {"measurement": "IC50", "setting": "[4]", "result": 0.0897, "unit": "µM"},
      {"measurement": "Activity", "setting": "[5]", "result": "Non-toxic"},
      {"measurement": "Activity", "setting": "RAW264.7 [6]", "result": "Active"},
      {"measurement": "Activity", "setting": "Mus musculus [7]", "result": "Active"},
      {"measurement": "Activity", "setting": "[8]", "result": "Non-toxic"},
      {"measurement": "AUC(0-t) at 24 h", "setting": "[9]", "result": 23.2, "unit": "µg·h/mL"},
      {"measurement": "half-life", "setting": "[10]", "result": 0.737, "unit": "h"},
      {"measurement": "IC50", "setting": "RAW264.7 [11]", "result": 30.1, "unit": "µM"},
      {"measurement": "Activity", "setting": "HepG2", "result": "Non-toxic"},
      {"measurement": "Activity", "setting": "Mus musculus [12]", "result": "Active"},
      {"measurement": "Activity", "setting": "[13]", "result": "Non-toxic"},
      {"measurement": "Activity", "setting": "Mus musculus [14]", "result": "Active"},
      {"measurement": "Activity", "setting": "Mus musculus [15]", "result": "Active"},
      {"measurement": "Activity", "setting": "Mus musculus [16]", "result": "Active"},
      {"measurement": "Activity", "setting": "[17]", "result": "Non-toxic"},
      {"measurement": "Activity", "setting": "[18]", "result": "Non-toxic"},
      {"measurement": "Activity", "setting": "RAW264.7 [19]", "result": "Non-toxic"},
      {"measurement": "half-life", "setting": "[20]", "result": 3.75, "unit": "h"},
      {"measurement": "Activity", "setting": "[21]", "result": "Non-toxic"},
      {"measurement": "half-life", "setting": "[22]", "result": 1.97, "unit": "h"},
      {"measurement": "Activity", "setting": "Mus musculus [23]", "result": "Active"},
      {"measurement": "Cmax", "setting": "[24]", "result": 0.219, "unit": "µg/mL"},
      {"measurement": "Activity", "setting": "[25]", "result": "Non-toxic"},
      {"measurement": "Activity", "setting": "RAW264.7 [26]", "result": "Active"},
      {"measurement": "AUC(0-t) at 24 h", "setting": "[27]", "result": 2.13, "unit": "µg·h/mL"},
      {"measurement": "IC50", "setting": "RAW264.7 [28]", "result": 29.5, "unit": "µM"},
      {"measurement": "AUC(0-inf)", "setting": "[29]", "result": 2.16, "unit": "µg·h/mL"},
      {"measurement": "Activity", "setting": "BEAS-2B [30]", "result": "Active"},
      {"measurement": "Activity", "setting": "Mus musculus [31]", "result": "Active"},
      {"measurement": "Activity", "setting": "RAW264.7 [32]", "result": "Active"},
      {"measurement": "Activity", "setting": "Mus musculus [33]", "result": "Active"},
      {"measurement": "half-life", "setting": "[34]", "result": 0.67, "unit": "h"},
      {"measurement": "clearance", "setting": "[35]", "result": 0.217, "unit": "L/h/kg"},
      {"measurement": "Activity", "setting": "RAW264.7 [36]", "result": "Active"}
    ]}
  ]
}
